Experimental data from patent US11434242B2, “Dopamine-b-hydroxylase inhibitors” (BIAL-PORTELA & Cª, S.A., priority 2017, dated 2022).

Target: T1, Dopamine beta hydroxylase (Homo sapiens, UniProt P09172)
T1 construct: 125 μl of plasma; tissue Instituto Português do Sangue Transplantação; host or cells: human plasma from healthy donors
T1 sequence (P09172 40-617 limits assumed): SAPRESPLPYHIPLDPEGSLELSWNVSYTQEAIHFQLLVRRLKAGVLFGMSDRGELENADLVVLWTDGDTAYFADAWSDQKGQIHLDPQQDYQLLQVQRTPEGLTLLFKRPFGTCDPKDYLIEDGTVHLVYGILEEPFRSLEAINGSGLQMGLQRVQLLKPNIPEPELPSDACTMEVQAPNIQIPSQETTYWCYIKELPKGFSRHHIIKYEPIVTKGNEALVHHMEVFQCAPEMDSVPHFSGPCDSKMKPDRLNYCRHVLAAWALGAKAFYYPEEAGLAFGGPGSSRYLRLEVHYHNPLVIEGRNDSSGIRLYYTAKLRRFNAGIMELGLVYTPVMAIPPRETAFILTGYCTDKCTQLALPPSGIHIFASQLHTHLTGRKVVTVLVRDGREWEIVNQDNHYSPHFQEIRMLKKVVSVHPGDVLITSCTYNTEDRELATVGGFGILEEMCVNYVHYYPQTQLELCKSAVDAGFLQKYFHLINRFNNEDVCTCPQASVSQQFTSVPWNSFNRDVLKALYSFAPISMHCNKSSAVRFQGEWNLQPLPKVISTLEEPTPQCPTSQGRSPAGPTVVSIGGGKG
Assay: Dopamine beta hydroxylase activity in human plasma
Format: biochemical
Details: for Plasma (0.01 μM), activity in % of control: inhibitor 0.01 μM; for Plasma (0.1 μM), activity in % of control: inhibitor 0.1 μM
In short: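 Octopamine production from tyramine over 45 min at 37° C, measured photometrically at 330 nm after SCX extraction and periodate oxidation against an octopamine standard curve, indicates plasma DβH activity. Compounds tested at final 10, 100 and 1000 nM in human plasma, pH 5.0 cofactor buffer, 10 min preincubation; results as % of control.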

Row | SMILES | Plasma (0.01 μM), activity in % of control | Plasma (0.1 μM), activity in % of control
1 | CN(C(=O)Cc1c2n(c(=S)n1C)C[C@H](c1c(F)ccc(Cl)c1F)C2)C1CCOCC1 [Example 373, (S)-2-(6-(3-chloro-2,6-difluorophenyl)-2-methyl-3-thioxo-2,5,6,7-tetrahydro-3H-pyrrolo[1,2-c]imidazol-1-yl)-N-methyl-N-(tetrahydro-2H-pyran-4-yl)acetamide] | 66.1 % of control | 12.8 % of control
2 | CN(C(=O)Cc1c2n(c(=S)n1C)C[C@@H](c1c(F)ccc(F)c1F)C2)C1CCOC1 (stereo partly drawn) [Example 374, N-methyl-2-((R)-2-methyl-3-thioxo-6-(2,3,6-trifluorophenyl)-2,5,6,7-tetrahydro-3H-pyrrolo[1,2-c]imidazol-1-yl)-N-(tetrahydrofuran-3-yl)acetamide] | 97.4 % of control | 50.0 % of control
3 | CN(C(=O)Cc1c2n(c(=S)n1C)C[C@@H](c1c(F)c(F)cc(F)c1F)C2)C1CCOC1 (stereo partly drawn) [Example 375, N-methyl-2-((R)-2-methyl-6-(2,3,5,6-tetrafluorophenyl)-3-thioxo-2,5,6,7-tetrahydro-3H-pyrrolo[1,2-c]imidazol-1-yl)-N-(tetrahydrofuran-3-yl)acetamide] | 90.0 % of control | 40.7 % of control
4 | O=C(Cc1[nH]c(=S)n2c1C[C@H](c1c(F)ccc(F)c1F)C2)NC1CCOCC1 [Example 376, (R)—N-(tetrahydro-2H-pyran-4-yl)-2-(3-thioxo-6-(2,3,6-trifluorophenyl)-2,5,6,7-tetrahydro-3H-pyrrolo[1,2-c]imidazol-1-yl)acetamide] | 116.3 % of control | 59.3 % of control
5 | O=C(Cc1[nH]c(=S)n2c1C[C@H](c1c(F)c(F)cc(F)c1F)C2)NC1CCOCC1 [Example 377, (R)—N-(tetrahydro-2H-pyran-4-yl)-2-(3-thioxo-6-(2,3,5,6-tetrafluorophenyl)-2,5,6,7-tetrahydro-3H-pyrrolo[1,2-c]imidazol-1-yl)acetamide] | 102.0 % of control | 56.8 % of control
6 | CN(C(=O)Cc1[nH]c(=S)n2c1C[C@H](c1c(F)c(F)cc(F)c1F)C2)C1CCOCC1 [Example 378, (R)—N-methyl-2-(6-(2,3,5,6-tetrafluorophenyl)-3-thioxo-2,5,6,7-tetrahydro-3H-pyrrolo[1,2-c]imidazol-1-yl)-N-(tetrahydro-2H-pyran-4-yl)acetamide] | 110.2 % of control | 52.6 % of control
7 | CN(C(=O)Cc1[nH]c(=S)n2c1C[C@H](c1c(F)ccc(F)c1F)C2)C1CCOCC1 [Example 379, (R)—N-methyl-2-(6-(2,3,6-trifluorophenyl)-3-thioxo-2,5,6,7-tetrahydro-3H-pyrrolo[1,2-c]imidazol-1-yl)-N-(tetrahydro-2H-pyran-4-yl)acetamide] | 108.7 % of control | 50.1 % of control
8 | CN(C(=O)Cc1[nH]c(=S)n2c1C[C@@H](c1c(F)ccc(Cl)c1F)C2)C1CCOCC1 [Example 380, (S)-2-(6-(3-chloro-2,6-difluorophenyl)-3-thioxo-2,5,6,7-tetrahydro-3H-pyrrolo[1,2-c]imidazol-1-yl)-N-methyl-N-(tetrahydro-2H-pyran-4-yl)acetamide] | 74.9 % of control | 27.4 % of control

Second part, the compound after the results:

Row | Plasma (0.01 μM), activity in % of control | Plasma (0.1 μM), activity in % of control | SMILES
9 | 30.0 % of control | 3.2 % of control | CN(C(=O)Cc1[nH]c(=S)n2c1[C@@H]1C[C@]1(c1c(F)ccc(Cl)c1F)C2)C1CCOCC1 [Example 381, 2-((5aS,6aR)-5a-(3-chloro-2,6-difluorophenyl)-3-thioxo-2,3,5,5a,6,6a-hexahydrocyclopropa[3,4]pyrrolo[1,2-c]imidazol-1-yl)-N-methyl-N-(tetrahydro-2H-pyran-4-yl)acetamide]
10 | 37.6 % of control | 6.0 % of control | Cn1c(CC(=O)N[C@@H]2CCCOC2)c2n(c1=S)C[C@H](c1c(F)ccc(Br)c1F)C2 [Example 382, 2-((S)-6-(3-bromo-2,6-difluorophenyl)-2-methyl-3-thioxo-2,5,6,7-tetrahydro-3H-pyrrolo[1,2-c]imidazol-1-yl)-N—((R)-tetrahydro-2H-pyran-3-yl)acetamide]
11 | 65.6 % of control | 14.8 % of control | CN(C(=O)Cc1c2n(c(=S)n1C)C[C@H](c1c(F)ccc(Cl)c1F)C2)C1CCOC1 (stereo partly drawn) [Example 383, 2-((S)-6-(3-chloro-2,6-difluorophenyl)-2-methyl-3-thioxo-2,5,6,7-tetrahydro-3H-pyrrolo[1,2-c]imidazol-1-yl)-N-methyl-N-(tetrahydrofuran-3-yl)acetamide]
12 | 104.5 % of control | 43.4 % of control | CN(C(=O)Cc1[nH]c(=S)n2c1C[C@@H](c1c(F)ccc(Cl)c1F)C2)C1CCOC1 (stereo partly drawn) [Example 384, 2-((S)-6-(3-chloro-2,6-difluorophenyl)-3-thioxo-2,5,6,7-tetrahydro-3H-pyrrolo[1,2-c]imidazol-1-yl)-N-methyl-N-(tetrahydrofuran-3-yl)acetamide]
13 | 68.1 % of control | 19.3 % of control | Cn1c(CC(=O)N[C@H]2CCOC2)c2n(c1=S)C[C@H](c1c(F)ccc(Cl)c1F)C2 [Example 385, 2-((S)-6-(3-chloro-2,6-difluorophenyl)-2-methyl-3-thioxo-2,5,6,7-tetrahydro-3H-pyrrolo[1,2-c]imidazol-1-yl)-N—((S)-tetrahydrofuran-3-yl)acetamide]
14 | 101.8 % of control | 79.4 % of control | O=C(Cc1[nH]c(=S)n2c1C[C@H](c1c(F)c(F)cc(F)c1F)C2)N[C@@H]1CCCOC1 [Example 386, N—((R)-tetrahydro-2H-pyran-3-yl)-2-((R)-3-thioxo-6-(2,3,5,6-tetrafluorophenyl)-2,5,6,7-tetrahydro-3H-pyrrolo[1,2-c]imidazol-1-yl)acetamide]
15 | 80.8 % of control | 71.1 % of control | CN1CCC(NC(=O)Cc2c3n(c(=S)n2C)C[C@@H](c2c(F)ccc(F)c2F)C3)C1=O (stereo partly drawn) [Example 388, N-(1-methyl-2-oxopyrrolidin-3-yl)-2-((R)-2-methyl-3-thioxo-6-(2,3,6-trifluorophenyl)-2,5,6,7-tetrahydro-3H-pyrrolo[1,2-c]imidazol-1-yl)acetamide]
16 | 75.2 % of control | 33.1 % of control | CN1C[C@@H](NC(=O)Cc2c3n(c(=S)n2C)C[C@@H](c2c(F)ccc(F)c2F)C3)CC1=O [Example 389, 2-((R)-2-methyl-3-thioxo-6-(2,3,6-trifluorophenyl)-2,5,6,7-tetrahydro-3H-pyrrolo[1,2-c]imidazol-1-yl)-N—((S)-1-methyl-5-oxopyrrolidin-3-yl)acetamide]
17 | 75.0 % of control | 52.0 % of control | Cn1c(CC(=O)N2CC[C@@H](C#N)C2)c2n(c1=S)C[C@@H](c1c(F)ccc(F)c1F)C2 [Example 390, (R)-1-(2-((R)-2-methyl-3-thioxo-6-(2,3,6-trifluorophenyl)-2,5,6,7-tetrahydro-3H-pyrrolo[1,2-c]imidazol-1-yl)acetyl)pyrrolidine-3-carbonitrile]
18 | 62.3 % of control | 13.2 % of control | O=C(Cc1[nH]c(=S)n2c1[C@@H]1C[C@]1(c1c(F)ccc(Cl)c1F)C2)N[C@@H]1CCOC1 [Example 392, 2-((5aS,6aR)-5a-(3-chloro-2,6-difluorophenyl)-3-thioxo-2,3,5,5a,6,6a-hexahydrocyclopropa[3,4]pyrrolo[1,2-c]imidazol-1-yl)-N—((R)-tetrahydrofuran-3-yl)acetamide]
19 | 90.6 % of control | 65.7 % of control | O=C(Cc1[nH]c(=S)n2c1C[C@H](c1c(F)c(F)cc(F)c1F)C2)NC1COC1 [Example 393, (R)—N-(oxetan-3-yl)-2-(6-(2,3,5,6-tetrafluorophenyl)-3-thioxo-2,5,6,7-tetrahydro-3H-pyrrolo[1,2-c]imidazol-1-yl)acetamide]
20 | 92.1 % of control | 47.6 % of control | Cn1c(CC(=O)NC2COC2)c2n(c1=S)C[C@@H](c1c(F)c(F)cc(F)c1F)C2 [Example 394, (R)-2-(2-methyl-6-(2,3,5,6-tetrafluorophenyl)-3-thioxo-2,5,6,7-tetrahydro-3H-pyrrolo[1,2-c]imidazol-1-yl)-N-(oxetan-3-yl)acetamide]
